The test system of one experiment is BxPC-3. Kind of experiment: XTT cell proliferation inhibition, BxPC-3. The class given is cell-based, humane. The text has this:
(§1) Die Substanzen der Beispiele 2.1 bis 2.3 wurden an verschiedenen Zelllinien in An- und Abwesenheit von Pyruvat im Nährmedium auf ihre proliferationshemmende Wirkung getestet. Die Substanzen wurden jeweils in DMSO gelöst. Anschließend wurde der Wirkstoff in acht Konzentrationsintervallen getestet. Der Berechnung der IC50-Werte lagen in jeder Konzentration acht Einzelwertbestimmungen zugrunde. Der IC50-Wert gibt die Wirkstoffkonzentration an, bei der im Vergleich zur Kontrollgruppe, die ausschließlich mit dem Lösungsmittel DMSO behandelt wurde, eine 50%ige Hemmung der Zellproliferation vorlag.
(Tetrazolium assays rely on reduction of a dye to a coloured formazan, in cell work by metabolically active cells.)

In another experiment the test system is HT-29. Kind of experiment: XTT cell proliferation inhibition, HT-29. The class given is cell-based, humane. To be noted: read-out: IC50 ohne Pyrovat.
Text: as §1

A further experiment has as its system MDA-MB-453. Kind of experiment: XTT cell proliferation inhibition, MDA-MB-453. To be noted: Homo sapiens. The class given is cell-based, humane.
Text: as §1

The subject of the next experiment is MCF-7. Description: XTT cell proliferation inhibition, MCF-7. It is filed as cell-based, humane.
Text: as §1

The next experiment concerns NK1. Description: XTT cell proliferation inhibition, NK1. The class given is cell-based, Ratten. To be noted: NK1, without pyruvate in the medium; read-out: IC50 ohne Pyrovat.
Text: as §1

The subject of experiment [1] is Ovarialkarzinom (OVXF 550). Kind of experiment: Colony assay in soft agar, ovarian carcinoma OVXF 550. It is filed as cell-based, menschlichen. The text has this: (§2) Im Kolonie-Assay werden Tumorstammzellen von verschiedenen menschlichen Tumorentitäten in Softagar kultiviert und die Ausbildung von Tumorkolonien in An- und Abwesenheiten von der erfindungsgemäßen Substanz (Beispiel 2.1, ggf. als Malat der Beispiel 2.2 oder 2.3) ausgezählt. Insgesamt wurde die Substanz an 25 verschiedenen Tumormodellen getestet. Zu den Tumormodellen gehörten Colon-, Pankreas- und Magenkarzinome, kleinzellige und nicht kleinzellige Lungentumore, Brust-, Ovar- und Nierenkarzinome sowie Melanome. Das breite Spektrum von verschiedenen Tumorentitäten sowie die große Anzahl von Modellen ermöglichen nach der Zellkultur eine erneute Prüfung der Wirksamkeit der Substanz und geben erste Hinweise darauf, ob die Substanz Wirkungsselektivität für bestimmte Tumorentitäten besitzt.
Im gleichen Kolonie-Assay und unter gleichen experimentellen Bedingungen wurden für die erfindungsgemäße Substanz (5-[5-Fluoro-2-oxo-1,2-dihydro-indol-(3Z)-ylidenemythyl]-2,4-dimethyl-1H-pyrrole-3-carboxylic acid (2-diethylamino-ethoxy)-amide (vorzugsweise das Salz der Äpfelsäure, Malate) folgende Werte gefunden: OVXF 550: IC50 = […], IC70 = 21,6 µM

Another experiment deals with verschiedenen Zelllinien. Kind of experiment: Cell culture proliferation inhibition, summary over all cell lines. The class given is cell-based. The following applies: span over the cell lines of Table 1; read-out: IC50-Werte.
Text: as §1

The subject of experiment [2] is nicht kleinzelliges Lungentumormodell. Description: Colony assay in soft agar, non-small-cell lung tumour model. It is filed as cell-based, menschlichen. The following applies: most sensitive model.
Text: as §2
(§3) Die Ergebnisse sind in der Figur 1 dargestellt (graphische Analyse der Mittelwerte für die Substanz basierend auf den IC70-Werten). Die Balken stellen die IC70-Konzentrationen im Verhältnis zum Mittelwerte aller IC70-Werte dar. Bei Balken nach links ist der IC70-Wert für das betreffende Modell niedriger als der Mittelwert der IC70-Werte aller Modelle, d.h. diese Modelle sind sensitiver im Vergleich zum Durchschnitt aller Modelle. Balken nach rechts bedeuten höhere IC70-Werte als der Durchschnitt der Modelle und damit eine geringere Sensitivität.

Experiment [3] deals with 25 verschiedenen Tumormodellen. Description: Colony assay in soft agar, 25 tumour models. It is filed as cell-based, menschlichen.
Text: as §2, §3

Another experiment concerns KBV-600. Kind of experiment: XTT cell proliferation inhibition, KBV-600. To be noted: KBV-600 (cultured with 600 ng/ml Vinblastin), without pyruvate in the medium; read-out: IC50 ohne Pyrovat. It is filed as cell-based.
Text: as §1

For a further experiment, the system named is Brusttumormodell. Description: Colony assay in soft agar, breast tumour model. It is filed as cell-based, menschlichen. To be noted: least sensitive model.
Text: as §2, §3

The test system of the next experiment is Wi-38. Description: XTT cell proliferation inhibition, Wi-38. The following applies: Homo sapiens; Wi-38, with pyruvate in the medium; read-out: IC50 (XTT) mit Pyrovat. The class given is cell-based, humane.
Text: as §1

The source of these data is patent publication EP2029580B1, “NOVEL INDOL-PYRROL DERIVATIVES FOR THE TREATMENT OF PROLIFERATIVE AND INFLAMMATORY DISEASES” (ScheBo Biotech AG, priority 2006, dated 2007).

As a reminder, the IC50 is the concentration needed to halve the response being measured.

Molecules are shown by their SMILES. Read-outs that look alike come from different tables or passages of the source.

On to `CCN(CC)CCONC(=O)c1c(C)[nH]c(/C=C2\C(=O)Nc3ccc(F)cc32)c1C` [Beispiel 2.2, N-[2-(diethylamino)ethoxy]-5-[(Z)-(5-Fluoro-1,2-dihydro-2-oxo-3H-indol-3-ylidene)methyl]-2,4-dimethyl-1H-pyrrole-3-carboxamide, (2S)-hydroxybutanedionate (1:0,5)], for which the IC50 in the experiment with BxPC-3 (BxPC-3, with pyruvate in the medium, read-out: IC50 (XTT) mit Pyrovat) amounted to 2000 nM; in the experiment with BxPC-3 (BxPC-3, without pyruvate in the medium, read-out: IC50 ohne Pyrovat), 2000 nM; in the experiment on HT-29 (Homo sapiens, HT-29, HT-29, without pyruvate in the medium) it was 3000 nM; in the experiment on MDA-MB-453 (MDA-MB-453, MDA-MB-453, with pyruvate in the medium, read-out: IC50 (XTT) mit Pyrovat) it was 8 µM.
`CCN(CC)CCONC(=O)c1c(C)[nH]c(/C=C2\C(=O)Nc3ccc(F)cc32)c1C` [Beispiel 2.3, N-[2-(diethylamino)ethoxy]-5-[(Z)-(5-Fluoro-1,2-dihydro-2-oxo-3H-indol-3-ylidene)methyl]-2,4-dimethyl-1H-pyrrole-3-carboxamide, (2S)-hydroxybutanedionate (1:1)]: the IC50 in the experiment with HT-29 (HT-29, without pyruvate in the medium) is 3000 nM; in the experiment with MCF-7 (MCF-7, with pyruvate in the medium, read-out: IC50 (XTT) mit Pyrovat), 9 µM; in the experiment with MCF-7 (MCF-7, without pyruvate in the medium, read-out: IC50 ohne Pyrovat), 10 µM; in the experiment on NK1, 4 µM.
Regarding `CCN(CC)CCNC(=O)c1c(C)[nH]c(/C=C2\C(=O)Nc3ccc(F)cc32)c1C` [SU11248, 5-[5-Fluoro-2-oxo-1,2-dihydroindol-(3Z)-ylidenemethyl]-2,4-dimethyl-1H-pyrrole-3-carboxylic Acid (2-Diethylaminoethyl)amide, reference compound], in experiment [1], the half-maximal inhibitory concentration (IC50) turned out to be 18 µM and the IC70 is given as 26,7 µM.
As to `CCN(CC)CCONC(=O)c1c(C)[nH]c(/C=C2\C(=O)Nc3ccc(F)cc32)c1C` [SO 272], the concentration for half-maximal inhibition (IC50) in the experiment with verschiedenen Zelllinien fell in the range of 1 to 11 µM.
In the case of `CCN(CC)CCONC(=O)c1c(C)[nH]c(/C=C2\C(=O)Nc3ccc(F)cc32)c1C` [Beispiel 2.1, 5-[5-Fluoro-2-oxo-1,2-dihydro-indol-(3Z)-ylidenemethyl]-2,4-dimethyl-1H-pyrrole-3-carboxylic acid (2-diethylamino-ethoxy)-amide], the half-inhibitory concentration (IC50) in the experiment with BxPC-3 (Homo sapiens, BxPC-3, with pyruvate in the medium, read-out: IC50 (XTT) mit Pyrovat) was 1300 nM; in the experiment with BxPC-3 (Homo sapiens, BxPC-3, without pyruvate in the medium, read-out: IC50 ohne Pyrovat), 2000 nM; in experiment [2] it was 4 µM; in experiment [3] (mean over all 25 tumour models, read-out: mittlere IC50-Wert) it was 15 µM; in the experiment on HT-29 (Homo sapiens, HT-29, without pyruvate in the medium), 3500 nM; in the experiment with KBV-600, 5 µM. The half-inhibitory concentration (IC50) worked out at 16.7 µM in [1] (substance preferably as malate salt); 30 µM with Brusttumormodell (read-out: höchste IC50-Wert); 11 µM with MCF-7 (Homo sapiens, MCF7, MCF-7, with pyruvate in the medium, read-out: IC50 (XTT) mit Pyrovat); 8 µM with MCF-7 (Homo sapiens, MCF7, MCF-7, without pyruvate in the medium, read-out: IC50 ohne Pyrovat); 11 µM in the experiment with MDA-MB-453 (MDA-MB-453, with pyruvate in the medium, read-out: IC50 (XTT) mit Pyrovat); 7 µM in the experiment with MDA-MB-453 (MDA-MB-453, without pyruvate in the medium, read-out: IC50 ohne Pyrovat). In addition, the values for the concentration for half-maximal inhibition (IC50) in the experiment on Wi-38 and in the experiment with NK1 were 11 µM and 2 µM, respectively. For the same compound, the IC70-Wert in experiment [2] was found to be 6 µM; in the experiment on Brusttumormodell, 40 µM. In addition, the “Hemmung der Koloniebildung” value in experiment [3] (all 25 models) was “Dosis-abhängigen Hemmung der Koloniebildung”. Also, the “mittlere IC70-Wert” value in experiment [3] (mean over all 25 tumour models) is 20 µM. In addition, the IC70 in [1] is 21,6 µM.
